Source: the supplement of paper PMC10307832

Assays:
Test in all cases: relative viability (nuclei count vs DMSO), 5 days (fraction); higher = more cells survive
NCI-H650 = tested on: NCI-H650
In short: (§1)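 Relative viability is defined as nuclei in treated wells over nuclei in vehicle wells. Duplicate plates were run and medians reported. Lung cancer cell lines in 1536-well plates were dosed by pin tool one day after seeding, with one drug or with a fixed anchor-drug dose plus five library-drug doses (not always all listed) in √10 steps, and nuclei were counted after 5 days.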

COR-L 105 = tested on: COR-L 105
In short: as §1

NCI-H2126 = tested on: NCI-H2126
In short: as §1

NCI-H2347 = tested on: NCI-H2347
In short: as §1

NCI-H661 = tested on: NCI-H661
In short: as §1

NCI-H520 = tested on: NCI-H520
In short: as §1

NCI-H2087 = tested on: NCI-H2087
In short: as §1

HCC-78 = tested on: HCC-78
In short: as §1

RERF-LC-KJ = tested on: RERF-LC-KJ
In short: as §1

NCI-H1915 = tested on: NCI-H1915
In short: as §1

201T = tested on: 201T
In short: as §1

NCI-H23 = tested on: NCI-H23
In short: as §1

PC-14 = tested on: PC-14
In short: as §1

LCLC-97TM1 = tested on: LCLC-97TM1
In short: as §1

NCI-H1666 = tested on: NCI-H1666
In short: as §1

H3255 = tested on: H3255
In short: as §1

EPLC-272H = tested on: EPLC-272H
In short: as §1

NCI-H647 = tested on: NCI-H647
In short: as §1

NCI-H2405 = tested on: NCI-H2405
In short: as §1

LC-2-ad = tested on: LC-2-ad
In short: as §1

HCC-827 = tested on: HCC-827
In short: as §1

**Q.** Which results are given for `COc1cc2nccc(Oc3ccc(NC(=O)Nc4cc(C)on4)c(Cl)c3)c2cc1OC` [Tivozanib] + C[C@]1(O)C[C@@H](c2nc(-c3ccc4ccc(-c5ccccc5)nc4c3)c3c(N)nccn32)C1 [Linsitinib] (partner 1 µM)?
**A.** relative viability (NCI-H650; first compound 0.005 µM): 0.671; relative viability (NCI-H650; first compound 0.01581 µM): 0.992; relative viability (NCI-H650; first compound 0.05 µM): 0.859; relative viability (NCI-H650; first compound 0.1581 µM): 0.736; relative viability (NCI-H650; first compound 0.5 µM): 0.542; relative viability (COR-L 105; first compound 0.01581 µM): 1.25; relative viability (COR-L 105; first compound 0.05 µM): 1.02; relative viability (COR-L 105; first compound 0.1581 µM): 1.02; relative viability (COR-L 105; first compound 0.5 µM): 0.904; relative viability (NCI-H2126; first compound 0.005 µM): 0.651; relative viability (NCI-H2126; first compound 0.01581 µM): 0.697; relative viability (NCI-H2126; first compound 0.05 µM): 0.734; relative viability (NCI-H2126; first compound 0.1581 µM): 0.52; relative viability (NCI-H2126; first compound 0.5 µM): 0.747; relative viability (NCI-H2347; first compound 0.005 µM): 0.711; relative viability (NCI-H2347; first compound 0.01581 µM): 0.897; relative viability (NCI-H2347; first compound 0.05 µM): 0.966; relative viability (NCI-H2347; first compound 0.1581 µM): 1.1; relative viability (NCI-H2347; first compound 0.5 µM): 0.92; relative viability (NCI-H661; first compound 0.005 µM): 0.525; relative viability (NCI-H661; first compound 0.01581 µM): 0.564; relative viability (NCI-H661; first compound 0.05 µM): 0.498; relative viability (NCI-H661; first compound 0.1581 µM): 0.707; relative viability (NCI-H661; first compound 0.5 µM): 0.652; relative viability (NCI-H520; first compound 0.005 µM): 0.838; relative viability (NCI-H520; first compound 0.01581 µM): 0.966; relative viability (NCI-H520; first compound 0.05 µM): 0.883; relative viability (NCI-H520; first compound 0.1581 µM): 0.935; relative viability (NCI-H520; first compound 0.5 µM): 0.821; relative viability (NCI-H2087; first compound 0.005 µM): 0.928; relative viability (NCI-H2087; first compound 0.01581 µM): 0.922; relative viability (NCI-H2087; first compound 0.05 µM): 0.926; relative viability (NCI-H2087; first compound 0.1581 µM): 1.04; relative viability (NCI-H2087; first compound 0.5 µM): 0.81; relative viability (HCC-78; first compound 0.005 µM): 0.53; relative viability (HCC-78; first compound 0.01581 µM): 0.492; relative viability (HCC-78; first compound 0.05 µM): 0.437; relative viability (HCC-78; first compound 0.1581 µM): 0.415; relative viability (HCC-78; first compound 0.5 µM): 0.451; relative viability (RERF-LC-KJ; first compound 0.005 µM): 0.828; relative viability (RERF-LC-KJ; first compound 0.01581 µM): 0.855; relative viability (RERF-LC-KJ; first compound 0.05 µM): 0.901; relative viability (RERF-LC-KJ; first compound 0.1581 µM): 0.92; relative viability (RERF-LC-KJ; first compound 0.5 µM): 0.88; relative viability (NCI-H1915; first compound 0.005 µM): 1.08; relative viability (NCI-H1915; first compound 0.01581 µM): 1.14; relative viability (NCI-H1915; first compound 0.05 µM): 1.12; relative viability (NCI-H1915; first compound 0.1581 µM): 1.07; relative viability (NCI-H1915; first compound 0.5 µM): 1.05; relative viability (201T; first compound 0.005 µM): 1.1; relative viability (201T; first compound 0.01581 µM): 0.984; relative viability (201T; first compound 0.05 µM): 1.06; relative viability (201T; first compound 0.1581 µM): 0.937; relative viability (201T; first compound 0.5 µM): 1.02; relative viability (NCI-H23; first compound 0.005 µM): 0.521; relative viability (NCI-H23; first compound 0.01581 µM): 0.534; relative viability (NCI-H23; first compound 0.05 µM): 0.64; relative viability (NCI-H23; first compound 0.1581 µM): 0.317; relative viability (NCI-H23; first compound 0.5 µM): 0.534; relative viability (PC-14; first compound 0.005 µM): 0.939; relative viability (PC-14; first compound 0.01581 µM): 0.957; relative viability (PC-14; first compound 0.05 µM): 1.06; relative viability (PC-14; first compound 0.1581 µM): 1.01; relative viability (PC-14; first compound 0.5 µM): 1.01; relative viability (LCLC-97TM1; first compound 0.005 µM): 0.154; relative viability (LCLC-97TM1; first compound 0.01581 µM): 0.179; relative viability (LCLC-97TM1; first compound 0.1581 µM): 0.187; relative viability (LCLC-97TM1; first compound 0.5 µM): 0.178; relative viability (NCI-H1666; first compound 0.005 µM): 0.748; relative viability (NCI-H1666; first compound 0.01581 µM): 0.856; relative viability (NCI-H1666; first compound 0.05 µM): 0.975; relative viability (NCI-H1666; first compound 0.1581 µM): 0.783; relative viability (NCI-H1666; first compound 0.5 µM): 0.876; relative viability (H3255; first compound 0.005 µM): 0.965; relative viability (H3255; first compound 0.01581 µM): 0.933; relative viability (H3255; first compound 0.05 µM): 1.09; relative viability (H3255; first compound 0.1581 µM): 1.05; relative viability (H3255; first compound 0.5 µM): 0.891; relative viability (EPLC-272H; first compound 0.005 µM): 1.1; relative viability (EPLC-272H; first compound 0.01581 µM): 1.14; relative viability (EPLC-272H; first compound 0.05 µM): 1.17; relative viability (EPLC-272H; first compound 0.1581 µM): 0.955; relative viability (EPLC-272H; first compound 0.5 µM): 1.12; relative viability (NCI-H647; first compound 0.005 µM): 1.08; relative viability (NCI-H647; first compound 0.01581 µM): 1.09; relative viability (NCI-H647; first compound 0.05 µM): 1.26; relative viability (NCI-H647; first compound 0.1581 µM): 1.21; relative viability (NCI-H647; first compound 0.5 µM): 1.18; relative viability (NCI-H2405; first compound 0.005 µM): 0.945; relative viability (NCI-H2405; first compound 0.01581 µM): 0.996; relative viability (NCI-H2405; first compound 0.05 µM): 0.943; relative viability (NCI-H2405; first compound 0.1581 µM): 0.89; relative viability (NCI-H2405; first compound 0.5 µM): 0.897; relative viability (LC-2-ad; first compound 0.005 µM): 0.86; relative viability (LC-2-ad; first compound 0.01581 µM): 0.791; relative viability (LC-2-ad; first compound 0.05 µM): 0.73; relative viability (LC-2-ad; first compound 0.1581 µM): 0.526; relative viability (LC-2-ad; first compound 0.5 µM): 0.616; relative viability (HCC-827; first compound 0.005 µM): 0.969; relative viability (HCC-827; first compound 0.01581 µM): 0.942; relative viability (HCC-827; first compound 0.05 µM): 0.944; relative viability (HCC-827; first compound 0.1581 µM): 1.04; relative viability (HCC-827; first compound 0.5 µM): 0.965
